pIC50: −log10 of the molar value.
Columns and labels:
Format in all cases: biochemical
[1] = target: T1, BTK-WT (Homo sapiens, UniProt Q06187); test: Btk in vitro inhibitory activity (one of Method A TR-FRET, Method B electrophoretic mobility shift, Method C radiometric filter binding); conditions: D-compounds panel data; read-out: IC50 BTK-WT
T1 construct: purified from insect cells as a full-length construct containing an N-terminal 6X-His tag; His6 (N); made in house; host or cells: insect cells (baculovirus Sf21 in Method B)

[2] = target: LCK (Homo sapiens, UniProt P06239); test: Inhibition of a panel of kinases, in vitro HotSpot kinase assay: LCK; conditions: D-compounds panel data; 1 μM ATP; read-out: IC50 LCK
[3] = target: EGFR (Homo sapiens, UniProt P00533); test: Inhibition of a panel of kinases, in vitro HotSpot kinase assay: EGFR; conditions: D-compounds panel data; 1 μM ATP
Protocol: (§1) The degree of inhibition of a panel of kinases is determined using the in vitro HotSpot kinase assay (purified enzymes, ^33P-ATP, an appropriate substrate and 1 μM ATP).

[4] = target: SRC (Homo sapiens, UniProt P12931); test: Inhibition of a panel of kinases, in vitro HotSpot kinase assay: SRC; conditions: D-compounds panel data; 1 μM ATP
Protocol: as §1

[5] = target: T2, TEC (Homo sapiens, UniProt P42680); test: Inhibition of a panel of kinases, in vitro HotSpot kinase assay: TEC; conditions: D-compounds panel data; 1 μM ATP
T2 sequence (P42680 1-631): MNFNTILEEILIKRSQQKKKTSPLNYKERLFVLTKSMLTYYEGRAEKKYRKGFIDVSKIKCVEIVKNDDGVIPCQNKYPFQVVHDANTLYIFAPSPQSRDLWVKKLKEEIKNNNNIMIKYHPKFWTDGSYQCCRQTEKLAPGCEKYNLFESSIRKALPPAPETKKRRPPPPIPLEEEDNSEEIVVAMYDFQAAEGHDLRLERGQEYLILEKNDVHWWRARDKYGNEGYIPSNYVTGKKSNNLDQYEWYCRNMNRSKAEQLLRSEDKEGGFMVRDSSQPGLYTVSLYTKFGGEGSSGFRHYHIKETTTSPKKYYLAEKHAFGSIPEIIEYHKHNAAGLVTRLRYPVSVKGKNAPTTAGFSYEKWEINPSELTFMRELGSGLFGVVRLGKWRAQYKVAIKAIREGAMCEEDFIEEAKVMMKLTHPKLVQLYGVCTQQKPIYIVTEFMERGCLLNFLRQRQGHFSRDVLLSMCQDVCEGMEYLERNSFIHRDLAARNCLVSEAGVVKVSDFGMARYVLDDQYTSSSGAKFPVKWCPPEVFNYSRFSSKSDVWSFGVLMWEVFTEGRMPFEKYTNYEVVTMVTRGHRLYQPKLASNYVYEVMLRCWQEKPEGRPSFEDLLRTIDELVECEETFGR
Protocol: as §1

SRC, sequence (P12931 whole entry): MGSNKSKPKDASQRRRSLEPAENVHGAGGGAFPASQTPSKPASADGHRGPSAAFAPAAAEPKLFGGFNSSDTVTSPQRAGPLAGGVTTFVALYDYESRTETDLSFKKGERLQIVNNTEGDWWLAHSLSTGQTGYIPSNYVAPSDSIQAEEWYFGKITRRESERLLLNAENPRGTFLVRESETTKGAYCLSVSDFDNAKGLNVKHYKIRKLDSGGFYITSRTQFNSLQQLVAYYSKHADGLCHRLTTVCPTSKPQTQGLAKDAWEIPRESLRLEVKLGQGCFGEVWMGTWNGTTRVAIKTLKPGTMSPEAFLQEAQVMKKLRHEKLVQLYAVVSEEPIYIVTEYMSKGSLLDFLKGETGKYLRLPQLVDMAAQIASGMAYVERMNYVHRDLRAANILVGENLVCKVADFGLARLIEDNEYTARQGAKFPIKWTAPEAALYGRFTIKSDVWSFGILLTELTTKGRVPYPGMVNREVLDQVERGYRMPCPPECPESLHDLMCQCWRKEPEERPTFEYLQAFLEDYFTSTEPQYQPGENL
LCK, sequence (P06239 whole entry): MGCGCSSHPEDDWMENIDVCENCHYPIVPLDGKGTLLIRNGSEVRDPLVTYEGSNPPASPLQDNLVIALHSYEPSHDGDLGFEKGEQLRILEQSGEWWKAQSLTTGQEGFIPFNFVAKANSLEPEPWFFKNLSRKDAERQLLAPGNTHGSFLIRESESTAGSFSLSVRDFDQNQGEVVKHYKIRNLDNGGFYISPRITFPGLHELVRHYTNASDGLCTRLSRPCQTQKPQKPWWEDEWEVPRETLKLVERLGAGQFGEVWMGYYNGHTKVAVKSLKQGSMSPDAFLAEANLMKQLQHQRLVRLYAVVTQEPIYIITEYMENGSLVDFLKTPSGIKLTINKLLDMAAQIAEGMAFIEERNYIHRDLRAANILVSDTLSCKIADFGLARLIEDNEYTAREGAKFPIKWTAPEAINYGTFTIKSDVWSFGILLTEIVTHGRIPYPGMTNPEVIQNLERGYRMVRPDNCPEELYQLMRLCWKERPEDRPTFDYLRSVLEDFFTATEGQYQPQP
T1 sequence (Q06187 whole entry): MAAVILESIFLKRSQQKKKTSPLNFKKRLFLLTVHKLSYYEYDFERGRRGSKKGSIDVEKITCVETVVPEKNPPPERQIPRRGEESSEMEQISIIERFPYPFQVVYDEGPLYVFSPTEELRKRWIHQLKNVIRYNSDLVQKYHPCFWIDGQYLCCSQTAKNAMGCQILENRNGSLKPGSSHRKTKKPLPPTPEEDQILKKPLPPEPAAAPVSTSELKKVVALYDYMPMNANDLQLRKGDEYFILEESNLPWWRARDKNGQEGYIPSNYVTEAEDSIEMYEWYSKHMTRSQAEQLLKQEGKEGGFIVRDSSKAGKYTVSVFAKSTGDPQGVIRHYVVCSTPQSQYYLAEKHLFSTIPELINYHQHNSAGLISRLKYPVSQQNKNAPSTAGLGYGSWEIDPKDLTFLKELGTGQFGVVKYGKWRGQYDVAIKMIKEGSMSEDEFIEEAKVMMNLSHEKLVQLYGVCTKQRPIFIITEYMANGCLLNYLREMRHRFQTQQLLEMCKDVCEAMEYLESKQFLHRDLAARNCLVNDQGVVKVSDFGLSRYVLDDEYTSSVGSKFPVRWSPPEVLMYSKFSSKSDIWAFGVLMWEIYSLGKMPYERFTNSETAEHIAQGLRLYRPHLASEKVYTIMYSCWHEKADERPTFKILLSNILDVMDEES
EGFR, sequence (P00533 25-1210): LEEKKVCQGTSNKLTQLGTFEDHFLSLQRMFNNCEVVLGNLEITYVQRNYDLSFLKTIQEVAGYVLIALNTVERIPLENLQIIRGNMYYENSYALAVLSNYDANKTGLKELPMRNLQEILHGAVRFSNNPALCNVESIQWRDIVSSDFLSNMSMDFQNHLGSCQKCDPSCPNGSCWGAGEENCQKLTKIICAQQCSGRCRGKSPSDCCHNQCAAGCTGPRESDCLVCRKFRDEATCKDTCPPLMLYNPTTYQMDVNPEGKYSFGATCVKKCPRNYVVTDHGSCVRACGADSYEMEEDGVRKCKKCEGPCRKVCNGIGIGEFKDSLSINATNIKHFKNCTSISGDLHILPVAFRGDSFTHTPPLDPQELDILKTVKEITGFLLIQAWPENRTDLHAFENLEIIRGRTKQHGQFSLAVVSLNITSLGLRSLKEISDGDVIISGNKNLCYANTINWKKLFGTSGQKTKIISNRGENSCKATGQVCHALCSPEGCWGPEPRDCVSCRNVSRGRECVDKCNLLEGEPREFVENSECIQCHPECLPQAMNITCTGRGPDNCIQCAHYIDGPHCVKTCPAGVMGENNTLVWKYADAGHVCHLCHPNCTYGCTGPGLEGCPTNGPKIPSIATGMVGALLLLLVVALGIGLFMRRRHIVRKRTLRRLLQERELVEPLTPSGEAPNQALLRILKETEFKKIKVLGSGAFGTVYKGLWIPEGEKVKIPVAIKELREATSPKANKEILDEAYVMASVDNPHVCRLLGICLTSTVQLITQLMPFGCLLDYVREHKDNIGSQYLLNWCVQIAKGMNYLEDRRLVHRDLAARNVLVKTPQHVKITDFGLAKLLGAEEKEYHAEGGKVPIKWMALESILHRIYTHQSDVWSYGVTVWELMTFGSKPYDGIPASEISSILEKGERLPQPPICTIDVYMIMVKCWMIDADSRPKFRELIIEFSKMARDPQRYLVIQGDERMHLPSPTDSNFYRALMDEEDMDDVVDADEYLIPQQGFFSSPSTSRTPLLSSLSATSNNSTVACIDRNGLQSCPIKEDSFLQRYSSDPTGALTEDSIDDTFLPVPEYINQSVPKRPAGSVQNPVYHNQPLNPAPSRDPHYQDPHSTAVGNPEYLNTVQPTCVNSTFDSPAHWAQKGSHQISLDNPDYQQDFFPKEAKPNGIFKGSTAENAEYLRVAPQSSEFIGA

Structure (SMILES)	pIC50 [1]	pIC50 [2]	pIC50 [3]	pIC50 [4]	pIC50 [5]
Cn1cc(Nc2nc(N3CC[C@@H](O)[C@H](NC(=O)c4ccc(C5CC5)cc4)C3)cnc2C(N)=O)cn1 (racemic) [Example D-26, (racemic)-trans-5-[3-(4-cyclopropylbenzamido)-4-hydroxypiperidin-1-yl]-3-[(1-methyl-1H-pyrazol-4-yl)amino]pyrazine-2-carboxamide]	7.00 to 8.00	5.00 to 6.00	< 5.00	5.00 to 6.00	6.00 to 7.00
Cn1cc(Nc2nc(N3C[C@H](CO)C[C@H](NC(=O)c4ccc(C5CC5)cc4)C3)cnc2C(N)=O)cn1 (racemic) [Example D-43, (racemic)-cis-5-[3-(4-cyclopropylbenzamido)-5-(hydroxymethyl)piperidin-1-yl]-3-[(1-methyl-1H-pyrazol-4-yl)amino]pyrazine-2-carboxamide]	≥ 8.00	6.00 to 7.00	5.00 to 6.00	6.00 to 7.00	7.00 to 8.00
CN(C)C(=O)N1CC[C@@H]2[C@H]1CCCN2c1cnc(C(N)=O)c(Nc2cnn(C)c2)n1 (racemic) [Example D-50, (racemic)-cis-5-[1-(dimethylcarbamoyl)-octahydro-1H-pyrrolo[3,2-b]pyridin-4-yl]-3-[(1-methyl-1H-pyrazol-4-yl)amino]pyrazine-2-carboxamide]	7.00 to 8.00	5.00 to 6.00	< 5.00	6.00 to 7.00	6.00 to 7.00
Cn1cc(Nc2nc(N3CCC[C@@H]4[C@H]3CCN4C(=O)c3ccccc3)cnc2C(N)=O)cn1 (racemic) [Example D-54, (racemic)-cis-5-{1-benzoyl-octahydro-1H-pyrrolo[3,2-b]pyridin-4-yl}-3-[(1-methyl-1H-pyrazol-4-yl)amino]pyrazine-2-carboxamide]	7.00 to 8.00	6.00 to 7.00	< 5.00	6.00 to 7.00	6.00 to 7.00
CN(C)C(=O)N[C@H]1CCCN(c2cnc(C(N)=O)c(Nc3ccc4ncccc4c3)n2)[C@@H]1CO (racemic) [Example D-64, trans 5-[3-[(dimethylcarbamoyl)amino]-2-(hydroxymethyl)piperidin-1-yl]-3-[(quinolin-6-yl)amino]pyrazine-2-carboxamide]	5.00 to 6.00	< 5.00	< 5.00	< 5.00	5.00 to 6.00
CN(C)C(=O)N[C@H]1CCCN(c2cnc(C(N)=O)c(Nc3ccc4ncccc4c3)n2)[C@H]1CO (racemic) [Example D-65, cis 5-[3-[(dimethylcarbamoyl)amino]-2-(hydroxymethyl)piperidin-1-yl]-3-[(quinolin-6-yl)amino]pyrazine-2-carboxamide]	6.00 to 7.00	< 5.00	< 5.00	5.00 to 6.00	5.00 to 6.00
Cn1cc(Nc2nc(N3CCC(NC(=O)c4ccc(C5CC5)cc4)C(O)C3)cnc2C(N)=O)cn1 (single isomer, unassigned) [Example D-28, Trans-5-[4-(4-cyclopropylbenzamido)-3-hydroxypiperidin-1-yl]-3-[(1-methyl-1H-pyrazol-4-yl)amino]pyrazine-2-carboxamide]	5.00 to 6.00	< 5.00	< 5.00	5.00 to 6.00	< 5.00
Cn1cc(Nc2nc(N3CCC(NC(=O)c4ccc(C5CC5)cc4)C(O)C3)cnc2C(N)=O)cn1 (single isomer, unassigned) [Example D-29, Trans-5-[4-(4-cyclopropylbenzamido)-3-hydroxypiperidin-1-yl]-3-[(1-methyl-1H-pyrazol-4-yl)amino]pyrazine-2-carboxamide]	6.00 to 7.00	< 5.00	< 5.00	5.00 to 6.00	5.00 to 6.00
C[C@@H]1[C@H](NC(=O)c2ccc(C3CC3)cc2F)CCCN1c1cnc(C(N)=O)c(Nc2cnn(C)c2)n1 [Example D-1, 5-[(2R,3R)-3-(4-cyclopropyl-2-fluorobenzamido)-2-methylpiperidin-1-yl]-3-[(1-methyl-1H-pyrazol-4-yl)amino]pyrazine-2-carboxamide]	≥ 8.00	5.00 to 6.00	5.00 to 6.00	6.00 to 7.00	7.00 to 8.00
Cc1cc(Nc2nc(N3CCC[C@@H](NC(=O)c4ccc(C5CC5)cc4F)C3)cnc2C(N)=O)on1 [Example D-2, 5-[(3R)-3-(4-cyclopropyl-2-fluorobenzamido)piperidin-1-yl]-3-[(3-methyl-1,2-oxazol-5-yl)amino]pyrazine-2-carboxamide]	6.00 to 7.00	< 5.00	< 5.00	5.00 to 6.00	5.00 to 6.00
NC(=O)c1ncc(N2CCC[C@@H](NC(=O)c3ccc(C4CC4)cc3F)C2)nc1Nc1cc(-c2ccccc2)ns1 [Example D-3, 5-[(3R)-3-(4-cyclopropyl-2-fluorobenzamido)piperidin-1-yl]-3-[(3-phenyl-1,2-thiazol-5-yl)amino]pyrazine-2-carboxamide]	< 5.00	< 5.00	< 5.00	< 5.00	< 5.00
Cc1ncc(Nc2nc(N3CCC[C@@H](NC(=O)c4ccc(C5CC5)cc4F)C3)cnc2C(N)=O)s1 [Example D-4, 5-[(3R)-3-(4-cyclopropyl-2-fluorobenzamido)piperidin-1-yl]-3-[(2-methyl-1,3-thiazol-5-yl)amino]pyrazine-2-carboxamide]	7.00 to 8.00	< 5.00	< 5.00	< 5.00	6.00 to 7.00
C[C@@H]1[C@H](N2Cc3cc(Br)ccc3C2=O)CCCN1c1cnc(C(N)=O)c(Nc2cnn(C)c2)n1 [Example D-27, 5-[(2R,3R)-3-(5-bromo-1-oxo-2,3-dihydro-1H-isoindol-2-yl)-2-methylpiperidin-1-yl]-3-[(1-methyl-1H-pyrazol-4-yl)amino]pyrazine-2-carboxamide]	≥ 8.00	6.00 to 7.00	6.00 to 7.00	7.00 to 8.00	≥ 8.00
C[C@H]1C[C@@H](NC(=O)c2ccc(C3CC3)cc2)CN(c2cnc(C(N)=O)c(Nc3cnn(C)c3)n2)C1 [Example D-30, 5-[(3R,5S)-3-(4-cyclopropylbenzamido)-5-methylpiperidin-1-yl]-3-[(1-methyl-1H-pyrazol-4-yl)amino]pyrazine-2-carboxamide]	≥ 8.00	6.00 to 7.00	< 5.00	6.00 to 7.00	7.00 to 8.00
C[C@@H]1C[C@@H](NC(=O)c2ccc(C3CC3)cc2)CN(c2cnc(C(N)=O)c(Nc3cnn(C)c3)n2)C1 [Example D-31, 5-[(3R,5R)-3-(4-cyclopropylbenzamido)-5-methylpiperidin-1-yl]-3-[(1-methyl-1H-pyrazol-4-yl)amino]pyrazine-2-carboxamide]	7.00 to 8.00	5.00 to 6.00	< 5.00	6.00 to 7.00	6.00 to 7.00
C[C@@H]1C[C@H](NC(=O)c2ccc(C3CC3)cc2)CN(c2cnc(C(N)=O)c(Nc3cnn(C)c3)n2)C1 [Example D-32, 5-[(3S,5R)-3-(4-cyclopropylbenzamido)-5-methylpiperidin-1-yl]-3-[(1-methyl-1H-pyrazol-4-yl)amino]pyrazine-2-carboxamide]	6.00 to 7.00	5.00 to 6.00	< 5.00	< 5.00	6.00 to 7.00
C[C@@H]1[C@H](NC(=O)N(C)C)CCCN1c1cnc(C(N)=O)c(Nc2ccc(OC3CCN(C)CC3)cc2)n1 [Example D-33, 5-[(2R,3R)-3-[(dimethylcarbamoyl)amino]-2-methylpiperidin-1-yl]-3-({4-[(1-methylpiperidin-4-yl)oxy]phenyl}amino)pyrazine-2-carboxamide]	≥ 8.00	7.00 to 8.00	6.00 to 7.00	7.00 to 8.00	7.00 to 8.00
C[C@H]1C[C@H](NC(=O)c2ccc(C3CC3)cc2)CN(c2cnc(C(N)=O)c(Nc3cnn(C)c3)n2)C1 [Example D-34, 5-[(3S,5S)-3-(4-cyclopropylbenzamido)-5-methylpiperidin-1-yl]-3-[(1-methyl-1H-pyrazol-4-yl)amino]pyrazine-2-carboxamide]	5.00 to 6.00	< 5.00	< 5.00	< 5.00	5.00 to 6.00
CC(C)n1ccc(C(=O)N[C@@H]2CCCN(c3cnc(C(N)=O)c(Nc4cnn(C)c4)n3)[C@@H]2C)cc1=O [Example D-35, 3-[(1-methyl-1H-pyrazol-4-yl)amino]-5-[(2R,3R)-2-methyl-3-[2-oxo-1-(propan-2-yl)-1,2-dihydropyridine-4-amido]piperidin-1-yl]pyrazine-2-carboxamide]	≥ 8.00	6.00 to 7.00	5.00 to 6.00	7.00 to 8.00	7.00 to 8.00
